Reference: US5817640A (Gensia Pharmaceuticals, priority 1995, dated 1998)
Entries after “also recorded” stand apart in the source; their conditions may differ.

Experiments:
Assay type in all cases: in vivo, human
[1] = test system: patients undergoing coronary artery bypass graft (CABG) surgery; experiment: Difficulty in weaning from cardiopulmonary bypass (Phase 2); conditions: for Weaning time (cross-clamp removal to termination of bypass): in min (unit assumed); for Weaning difficulty: balloon pump, number of patients / Weaning difficulty: return to bypass, number of patients: placebo 1, p=0.6; for Weaning difficulty: pacemaker, number of patients: placebo 2; for Weaning difficulty: pacemaker, number of patients / Weaning difficulty: other, number of patients / Weaning difficulty: other / Weaning difficulty: pacemaker: p=0.7; for Weaning difficulty: other, number of patients: placebo 5; for Weaning difficulty: vasopressors, number of patients / Weaning difficulty: vasopressors: p=0.19; for Patients with any difficulty weaning, number: placebo 13; for Weaning difficulty: other / Weaning difficulty: pacemaker: placebo […]
Experimental: During surgery, anesthesia was maintained by continuous infusion of fentanyl and midazolam. Routine clinical parameters were recorded using standard operating room monitoring equipment. Continuous 2-lead Holter ECG and TEE data were recorded. Standard surgical procedures (e.g., aorta cross-clamping, crystalloid cardioplegia, cardio-pulmonary bypass, hypothermia) were used. Anastomoses were constructed, aorta cross-clamp removed and patients were discontinued from bypass when body temperature was 37° C. The quality of anastomosis was judged by the surgeon. Difficulty in weaning from bypass was judged by need for one or more of the following: pacemaker, return to bypass, balloon pump or vasopressor administration. Hemodynamic measurements, including heart rate, arterial blood pressure, pulmonary capillary wedge pressure and cardiac output, were recorded before sternotomy, 15 and 30 min after bypass and upon chest closure. Radial artery and pulmonary artery pressures, myocardial and whole body temperature, O2 saturation, end-tidal CO2 and arterial blood gases were measured, and ECG recordings were obtained as clinically indicated. Hemodynamic variables (blood pressure, heart rate, pulmonary capillary wedge pressure) were controlled within 20% of baseline using prescribed regimens.
The incidence of adverse clinical outcomes, such as cardiac death (death of patient attributable to primarily cardiac causes, non-fatal transmural MI (as measured by the appearance of a new Q-wave on 12-lead ECG plus a CK-MB value of ≥50 units), non-transmural MI (CK-MB value of ≥50 units), congestive heart failure (low cardiac output requiring intra-aortic balloon pump or left ventricular assist device) or life-threatening dysrhythmia (ventricular fibrillation, or ventricular tachycardia requiring cardioversion or drug treatment) was compared between the placebo and treatment groups. For the diagnosis of myocardial infarction, ECG tracings and CK-MB values were assessed centrally by observers blinded to treatment. The difficulty of weaning the patient from bypass, if any, was compared between placebo and treatment groups by noting need for one or more of the following: pacemaker, return to bypass, balloon pump or use of vasopressors.
8. Difficulty in Weaning. Patients were considered to have difficulty in weaning if they needed one or more of the following interventions: pacemaker, return to bypass, balloon pump or use of vasopressors. The number of patients receiving each of the above interventions was analyzed using a X^2 and Fisher's exact test, as was the number of patients classified as having difficulty in weaning. In addition, the time to weaning (defined as time from cross-clamp removal to end of bypass) in the patients experiencing difficulty were compared by a 1-way analysis of variance.
As noted, patients were determined as being difficult to remove from cardiopulmonary bypass if they required one or more of the following interventions: insertion of a pacemaker, return to bypass, use of a balloon pump or administration of vasopressors, or another intervention which the investigation determines is indicative of difficulty in weaning. […] When a combination of the high and low dose groups were compared to placebo (Table 9b), the reduced need for vasopressor support approached statistical significance (p=0.08). […] There were no differences in any of the weaning difficulty parameters discussed above between the high and low dose groups (Table 9c).

[2] = Plasma AICA riboside concentrations / pharmacokinetics in CABG patients (Phase 2)
Experimental: 10. Plasma Levels. […] Individual values and group means were tabulated and drug clearance calculated. Dose proportionality was assessed.
The data are also presented graphically in FIG. 3.

[3] = Uric acid monitoring, Phase 3 CABG trial; conditions: treated patients, data not shown
Excerpt: The uric acid concentrations of all patients in the study were monitored.

[4] = test system: patients undergoing coronary artery bypass graft (CABG) surgery; experiment: Incidence of MI and combined clinical outcome by plasma level of AICA riboside, Phase 3
Excerpt: The data in Table 13 reflect diagnosis of MI by both ECG and CK-MB (as described above with respect to Table 12).

[5] = AICA riboside plasma level <0.25 μg/ml, n=209
[6] = AICA riboside plasma level <0.25 μg/ml, n=211
[7] = plasma level 0.25-2.00 μg/ml, n=83
[8] = plasma level 0.25-2.00 μg/ml, n=89
[9] = plasma level 2.00-3.00 μg/ml, n=114
[10] = plasma level 2.00-3.00 μg/ml, n=116
[11] = plasma level 3.00-4.00 μg/ml, n=44
[12] = plasma level 4.00-5.00 μg/ml, n=61
[13] = plasma level 5.00-6.00 μg/ml, n=49
[14] = plasma level 5.00-6.00 μg/ml, n=50

NC(=O)c1ncn([C@@H]2O[C@H](CO)[C@@H](O)[C@H]2O)c1N [AICA riboside, 5-amino-1-β-D-ribofuranosyl-imidazole-4-carboxamide]
Weaning time (cross-clamp removal to termination of bypass) ([1]; 0.05 mg/kg/min, n=41, all patients, placebo 23 +/- 2.9): 20 +/- 2.2
Weaning difficulty: balloon pump, number of patients ([1]; 0.05 mg/kg/min, n=41): 0 patients
Weaning difficulty: return to bypass, number of patients ([1]; 0.05 mg/kg/min, n=41): 0 patients
Weaning difficulty: pacemaker, number of patients ([1]; 0.05 mg/kg/min, n=41): 4 patients
Weaning difficulty: other, number of patients ([1]; 0.05 mg/kg/min, n=41): 3 patients
Weaning difficulty: vasopressors, number of patients ([1]; 0.05 mg/kg/min, n=41, placebo 8): 3 patients
Patients with any difficulty weaning, number ([1]; 0.05 mg/kg/min, n=41, p=0.17): 7 patients
Weaning difficulty: vasopressors ([1]; 0.05 mg/kg/min, n=41, placebo 21.6%): 7.3%
Patients with any difficulty weaning ([1]; 0.05 mg/kg/min, n=41, placebo 35%, p=0.17): 17%
Weaning difficulty: other ([1]; 0.05 mg/kg/min, n=41): 7.3%
Weaning difficulty: pacemaker ([1]; 0.05 mg/kg/min, n=41): 9.8%
Weaning time (cross-clamp removal to termination of bypass) ([1]; 0.05 mg/kg/min, patients with difficulty, placebo 31.8 +/- 6.3): 20 +/- 4.6
Weaning time (cross-clamp removal to termination of bypass) ([1]; 0.1 mg/kg/min, n=34, all patients, placebo 23 +/- 2.9): 17 +/- 1.8
Weaning difficulty: balloon pump, number of patients ([1]; 0.10 mg/kg/min, n=35): 0 patients
Weaning difficulty: return to bypass, number of patients ([1]; 0.10 mg/kg/min, n=35): 0 patients
Weaning difficulty: pacemaker, number of patients ([1]; 0.10 mg/kg/min, n=35): 4 patients
Weaning difficulty: other, number of patients ([1]; 0.10 mg/kg/min, n=35): 4 patients
Weaning difficulty: vasopressors, number of patients ([1]; 0.10 mg/kg/min, n=35, placebo 8): 4 patients
Patients with any difficulty weaning, number ([1]; 0.10 mg/kg/min, n=35, p=0.17): 8 patients
Weaning difficulty: vasopressors ([1]; 0.10 mg/kg/min, n=35, placebo 21.6%): 11.4%
Patients with any difficulty weaning ([1]; 0.10 mg/kg/min, n=35, placebo 35%, p=0.17): 23%
Weaning difficulty: other ([1]; 0.10 mg/kg/min, n=35): 11.4%
Weaning difficulty: pacemaker ([1]; 0.10 mg/kg/min, n=35): 11.4%
Weaning time (cross-clamp removal to termination of bypass) ([1]; 0.1 mg/kg/min, patients with difficulty, placebo 31.8 +/- 6.3): 20.8 +/- 4.2
Patients with any difficulty weaning, number ([1]; 0.05 + 0.10 mg/kg/min combined, n=76, p=0.06): 15 patients
Patients with any difficulty weaning ([1]; 0.05 + 0.10 mg/kg/min combined, n=76, placebo 35.1%, p=0.06): 19.7%
Vasopressors required, number of patients ([1]; 0.05 + 0.10 mg/kg/min combined, placebo 8, p=0.08): 7 patients
Vasopressors required ([1]; 0.05 + 0.10 mg/kg/min combined, placebo 21.6%, p=0.08): 9.2%
Need for vasopressor support vs placebo ([1]; low and high dose groups, p=0.19 separately, p=0.08 combined): strong trend towards a reduced need for vasopressor support; also recorded: less likely to receive vasopressor assistance
Weaning difficulty vs placebo ([1]; p=0.17 when compared separately, p=0.06 combined dose groups): towards a reduction in weaning difficulty in the drug treated groups
Steady state plasma concentration ([2]; 0.05 mg/kg/min): approximately 2.5 μg/ml
Mean (±SEM) plasma AICA riboside concentration ([2]; 0.05 mg/kg/min constant infusion, n=40, pre-bypass): 2.66 ± 0.30 µg/mL
Mean (±SEM) plasma AICA riboside concentration ([2]; 0.05 mg/kg/min, n=40, 1 hour post-infusion): 0.32 ± 0.63 µg/mL
Mean (±SEM) plasma AICA riboside concentration ([2]; 0.05 mg/kg/min, n=40, end infusion): 1.83 ± 0.13 µg/mL
Mean (±SEM) plasma AICA riboside concentration ([2]; 0.05 mg/kg/min, n=40, post-bypass): 2.49 ± 0.13 µg/mL
Steady state plasma concentration ([2]; 0.1 mg/kg/min): ~5.0 µg/mL
Mean (±SEM) plasma AICA riboside concentration ([2]; 0.10 mg/kg/min constant infusion, n=31, pre-bypass): 5.11 ± 0.20 µg/mL
Mean (±SEM) plasma AICA riboside concentration ([2]; 0.10 mg/kg/min, n=31, 1 hour post-infusion): 0.45 ± 0.03 µg/mL
Mean (±SEM) plasma AICA riboside concentration ([2]; 0.10 mg/kg/min, n=31, end infusion): 3.67 ± 0.30 µg/mL
Mean (±SEM) plasma AICA riboside concentration ([2]; 0.10 mg/kg/min, n=31, post-bypass): 5.47 ± 0.19 µg/mL
Kinetics (linearity, dose proportionality) ([2]; CABG patients, 0.05 and 0.1 mg/kg/min infusion): exhibits linear kinetics; also recorded: good dose proportionality
Plasma concentration as % of steady state level after end of infusion ([2]; one hour after infusion terminated): 10%
Change of CLp during post-bypass period ([2]; post-bypass): trend for the CLp to increase
Dose needed in anesthetized patients, % less than in non-anesthetized patients ([2]; to achieve desired blood concentration levels): 20-50%
Crystalluria [3]: no clinically significant crystalluria
Plasma uric acid concentrations vs normal range [3]: generally remained in, or close to, the normal range
Uric acid concentrations, dose relation [3]: clear dose related increase in uric acid concentrations
Incidence of myocardial infarction [4, 5]: 4.3%
Myocardial infarction, number of patients [4, 5]: 9 patients
Combined clinical outcome, number of patients [4, 6]: 29 patients
Incidence of combined clinical outcome [4, 6]: 13.7%
Most effective plasma level of AICA riboside ([4]; from Table 13): 3 to 6 µg/mL
Incidence of myocardial infarction [4, 7]: 2.4%
Myocardial infarction, number of patients [4, 7]: 2 patients
Combined clinical outcome, number of patients [4, 8]: 9 patients
Incidence of combined clinical outcome [4, 8]: 10.1%
Incidence of myocardial infarction [4, 9]: 4.4%
Myocardial infarction, number of patients [4, 9]: 5 patients
Combined clinical outcome, number of patients [4, 10]: 11 patients
Incidence of combined clinical outcome [4, 10]: 9.5%
Combined clinical outcome, number of patients [4, 11]: 3 patients
Incidence of combined clinical outcome [4, 11]: 6.8%
Incidence of myocardial infarction [4, 11]: 2.3%
Myocardial infarction, number of patients [4, 11]: 1 patients
Combined clinical outcome, number of patients [4, 12]: 2 patients
Incidence of combined clinical outcome [4, 12]: 3.3%
Myocardial infarction, number of patients [4, 12]: 0 patients
Incidence of myocardial infarction [4, 13]: 4.1%
Myocardial infarction, number of patients [4, 13]: 2 patients
Combined clinical outcome, number of patients [4, 14]: 3 patients
Incidence of combined clinical outcome [4, 14]: 6.0%
Incidence of myocardial infarction ([4]; plasma level >6.00 μg/ml, n=44): 2.3%
Myocardial infarction, number of patients ([4]; plasma level >6.00 μg/ml, n=44): 1 patients
Combined clinical outcome, number of patients ([4]; plasma level >6.00 μg/ml, n=46): 4 patients
Incidence of combined clinical outcome ([4]; plasma level >6.00 μg/ml, n=46): 8.7%
